Measurements taken from patent US20210198277A1, “AMINE-SUBSTITUTED ARYL OR HETEROARYL COMPOUNDS” (Epizyme, Inc., priority 2016, published 2021).

How the values were obtained:
human EHMT2 913-1193 = target: T1, human EHMT2 913-1193 (Homo sapiens, UniProt Q96KQ7); assay: EHMT2 enzyme assay on histone peptide substrate (EHMT2 PEP); assay type: biochemical; conditions: Table VI; read-out: EHMT2 PEP IC50
T1 construct: recombinant purified human EHMT2 913-1193, Viva; purchased Viva
T1 sequence (Q96KQ7 913-1193): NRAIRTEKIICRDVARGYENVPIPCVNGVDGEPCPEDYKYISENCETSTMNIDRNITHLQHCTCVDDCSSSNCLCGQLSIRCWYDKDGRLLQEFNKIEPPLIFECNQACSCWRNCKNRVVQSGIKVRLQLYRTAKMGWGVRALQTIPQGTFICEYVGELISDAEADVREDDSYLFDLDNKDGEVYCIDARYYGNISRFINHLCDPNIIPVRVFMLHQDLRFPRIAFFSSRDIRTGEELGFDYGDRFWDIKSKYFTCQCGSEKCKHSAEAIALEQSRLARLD
How it was run: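 Radiometric methyltransferase read-out: ^3H-methyl transfer from ^3H-SAM onto biotinylated histone peptide, captured on streptavidin Flashplates after 60 min reaction at room temperature. Enzyme 0.031 nM, preincubated 30 min with inhibitor; buffer 20 mM Bicine pH 7.5 with 1 mM TCEP; top compound concentration 50 μM final, 2% DMSO.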

EHMT1 = target: T2, EHMT1 (Homo sapiens, UniProt Q9H9B1); assay: EHMT1 enzyme assay on peptide substrate (EHMT1 PEP); assay type: biochemical; conditions: Table VI; read-out: EHMT1 PEP IC50
T2 sequence (Q9H9B1 1-1298): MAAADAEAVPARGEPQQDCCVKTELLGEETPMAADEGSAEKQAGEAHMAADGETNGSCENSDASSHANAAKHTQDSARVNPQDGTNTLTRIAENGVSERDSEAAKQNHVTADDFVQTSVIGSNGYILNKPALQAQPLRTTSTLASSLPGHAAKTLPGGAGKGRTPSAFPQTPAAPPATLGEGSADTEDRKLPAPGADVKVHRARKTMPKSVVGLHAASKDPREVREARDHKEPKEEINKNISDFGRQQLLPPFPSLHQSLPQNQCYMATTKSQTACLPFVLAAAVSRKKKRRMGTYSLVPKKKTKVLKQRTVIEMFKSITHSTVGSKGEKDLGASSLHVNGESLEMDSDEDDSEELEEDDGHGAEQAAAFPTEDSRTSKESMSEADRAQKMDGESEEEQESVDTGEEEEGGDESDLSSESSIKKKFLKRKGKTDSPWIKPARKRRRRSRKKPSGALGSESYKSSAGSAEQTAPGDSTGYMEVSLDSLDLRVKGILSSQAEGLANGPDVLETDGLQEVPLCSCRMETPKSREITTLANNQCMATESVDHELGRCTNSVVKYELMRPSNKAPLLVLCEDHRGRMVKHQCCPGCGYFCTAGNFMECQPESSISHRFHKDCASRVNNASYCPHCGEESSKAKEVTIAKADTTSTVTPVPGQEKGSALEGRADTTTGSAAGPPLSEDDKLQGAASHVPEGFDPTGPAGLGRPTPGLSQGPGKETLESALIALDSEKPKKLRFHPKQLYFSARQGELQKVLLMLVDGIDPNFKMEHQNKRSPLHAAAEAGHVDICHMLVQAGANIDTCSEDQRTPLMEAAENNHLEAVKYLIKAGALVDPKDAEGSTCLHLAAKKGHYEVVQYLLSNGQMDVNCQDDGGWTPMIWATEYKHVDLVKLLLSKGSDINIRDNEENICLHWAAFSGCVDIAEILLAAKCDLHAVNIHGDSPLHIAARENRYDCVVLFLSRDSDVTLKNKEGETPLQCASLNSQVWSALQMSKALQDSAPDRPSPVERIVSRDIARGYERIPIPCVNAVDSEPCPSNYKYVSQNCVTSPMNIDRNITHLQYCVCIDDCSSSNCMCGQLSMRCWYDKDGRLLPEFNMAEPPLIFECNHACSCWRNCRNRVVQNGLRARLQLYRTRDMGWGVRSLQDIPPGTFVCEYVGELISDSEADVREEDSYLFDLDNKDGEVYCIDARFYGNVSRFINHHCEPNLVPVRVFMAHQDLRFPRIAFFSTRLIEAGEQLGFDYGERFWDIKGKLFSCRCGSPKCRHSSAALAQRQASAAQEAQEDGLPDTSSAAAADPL

| SMILES | IC50 (human EHMT2 913-1193) [µM] | IC50 (EHMT1) [µM] |
| --- | --- | --- |
| CNc1cc(C)nc(Nc2cc(OCCCN3CCCC3)c3nc(C)cn3c2)n1 [Compound 616] | 1 to 10 | 0.1 to 1 |
| CNc1cc(C)nc(Nc2cc(OCCCN3CCCC3)c3nccn3c2)n1 [Compound 618] | 1 to 10 | 0.1 to 1 |
| CNc1cc(C)nc(Nc2cc(OCCCN3CCCC3)c3oncc3c2)n1 [Compound 793] | > 10 | > 10 |
| COc1ccc(Nc2nn(C)c3cnccc23)cc1OCCCN1CCCC1 [Compound 794] | > 10 | > 10 |
| COc1cnc(Nc2nn(C)c3cnccc23)cc1OCCCN1CCCC1 [Compound 795] | > 10 | > 10 |
| COc1ccc(Nc2cc(C)[nH]n2)cc1OCCCN1CCCC1 [Compound 796] | > 10 | > 10 |
| COc1ccc(Nc2cc(C)n(C)n2)cc1OCCCN1CCCC1 [Compound 797] | > 10 | > 10 |
| CNc1cc(C)nc(Nc2cnc(OC)c(OC[C@@H]3CCN(C4CCC4)C3)c2)n1 [Compound 798] | 0.1 to 1 | < 0.1 |
| COc1cnc(Nc2nccc3nccn23)cc1OC[C@@H]1CCNC1 [Compound 801] | > 10 | > 10 |
| CNc1cc(C2CCOCC2)c2cc(OC)c(OC[C@@H]3CCN(C)C3)cc2n1 [Compound 803] | 0.1 to 1 | < 0.1 |
| COc1cc(NC2CCOCC2)ncc1OCC1CCNC1 (stereo not shown) [Compound 806] | 1 to 10 | 1 to 10 |
| COc1cc(N(C)C2CCOCC2)ncc1OCC1CCNC1 (stereo not shown) [Compound 808] | > 10 | 1 to 10 |
| COc1cc2c(C)cc(N3CCCCC3)nc2cc1OCCCN1CCCC1 [Compound 810] | 0.1 to 1 | < 0.1 |
| COc1cc2c(C)nc(N3CCCCC3)nc2cc1OCCCN1CCCC1 [Compound 811] | > 10 | > 10 |
| CNc1cc(C)nc(Nc2ccc(OC)c(CN[C@H]3CCNC3)c2)n1 [Compound 813] | 1 to 10 | 0.1 to 1 |
| CNc1cc(C)nc(Nc2ccc(OC)c(CN[C@@H]3CCNC3)c2)c1 [Compound 814] | 1 to 10 | 1 to 10 |
| COc1cc2c(C3CCOCC3)cc(=O)[nH]c2cc1OCCCN1CCCC1 [Compound 822] | > 10 | > 10 |
| COc1cc2c(C3CCOCC3)cc(N3CCCCC3)nc2cc1OCCCN1CCCC1 [Compound 824] | 0.1 to 1 | 0.1 to 1 |
| COc1cc2c(C3CCOCC3)cc(N(C)C)nc2cc1OCCCN1CCCC1 [Compound 825] | 0.1 to 1 | 0.1 to 1 |
| COc1cc2c(C3CCN(C(C)=O)CC3)cc(C)nc2cc1OCCCN1CCCC1 [Compound 834] | 0.1 to 1 | 0.1 to 1 |
| CCS(=O)(=O)N1CCC(c2cc(C)nc3cc(OCCCN4CCCC4)c(OC)cc23)CC1 [Compound 836] | 0.1 to 1 | 0.1 to 1 |
| COc1cc2c(C3CCN(CC(F)(F)F)CC3)cc(C)nc2cc1OCCCN1CCCC1 [Compound 837] | 0.1 to 1 | 0.1 to 1 |
| COc1cc2c(C3CCN(CC(F)(F)F)CC3)nc(C)nc2cc1OCCCN1CCCC1 [Compound 841] | > 10 | > 10 |
| CNc1cc(C)nc(Nc2ccc(OC)c(C#CC3CCNC3)c2)n1 (stereo not shown) [Compound 845] | 0.1 to 1 | < 0.1 |
| CNc1cc(C)nc(Nc2ccc(OC)c(C#CC3CCN(C)C3)c2)n1 (stereo not shown) [Compound 847] | 0.1 to 1 | < 0.1 |
| CNC(=O)c1cc(C)nc(Nc2ccc(OC)c(OCCCN3CCCC3)c2)n1 [Compound 854] | > 10 | > 10 |
| CNc1cc(C)nc(Nc2ccc(OC)c(C#CCN3CCN(C)CC3)c2)n1 [Compound 860] | > 10 | > 10 |

The next lines start with the values.

| IC50 (human EHMT2 913-1193) [µM] | IC50 (EHMT1) [µM] | SMILES |
| --- | --- | --- |
| 0.1 to 1 | < 0.1 | CCN1CC(COc2cc(Nc3nc(C)cc4[nH]ccc34)ncc2OC)C1 [Compound 613] |
| 0.1 to 1 | < 0.1 | COc1cc2c(C3CCN(C)CC3)cc(C#N)nc2cc1OCCCN1CCCC1 [Compound 790] |
| < 0.1 | < 0.1 | COc1ccc(Nc2nc(C)cc(NC(C)C)n2)cc1OC[C@@H]1CCNC1 [Compound 800] |
| < 0.1 | < 0.1 | CNc1cc(C2CCOCC2)c2cc(OC)c(OC[C@@H]3CCNC3)cc2n1 [Compound 802] |
| < 0.1 | < 0.1 | CNc1cc(C2CCN(C(C)=O)CC2)c2cc(OC)c(OCCCN3CCCC3)cc2n1 [Compound 809] |
| < 0.1 | < 0.1 | COc1cc2c(C3CCN(C)CC3)cc(N3CCCCC3)nc2cc1OCCCN1CCCC1 [Compound 812] |
| < 0.1 | < 0.1 | CNc1cc(C2CCCCC2)c2cc(OC)c(OCCCN3CCCC3)cc2n1 [Compound 816] |
| < 0.1 | < 0.1 | CNc1cc(C(C)C)c2cc(OC)c(OCCCN3CCCC3)cc2n1 [Compound 817] |
| < 0.1 | < 0.1 | CNc1cc(CC2CCOCC2)c2cc(OC)c(OCCCN3CCCC3)cc2n1 [Compound 823] |
| < 0.1 | < 0.1 | CNc1cc(C2CCN(CCC(F)(F)F)CC2)c2cc(OC)c(OCCCN3CCCC3)cc2n1 [Compound 832] |
| < 0.1 | < 0.1 | CNc1cc(C2CCN(CC(F)(F)F)CC2)c2cc(OC)c(OCCCN3CCCC3)cc2n1 [Compound 833] |
| < 0.1 | < 0.1 | COc1cc2c(C3CCN(CCC(F)(F)F)CC3)cc(C)nc2cc1OCCCN1CCCC1 [Compound 838] |
| < 0.1 | < 0.1 | CNc1cc(C2CCN(CCOC)CC2)c2cc(OC)c(OCCCN3CCCC3)cc2n1 [Compound 839] |
| < 0.1 | < 0.1 | CNc1cc(C)nc(Nc2ccc(OC)c(C#CC3CCCN3)c2)n1 (stereo not shown) [Compound 846] |
| < 0.1 | < 0.1 | CNc1cc(C)nc(Nc2ccc(OC)c(C#CC3CCCN3C)c2)n1 (stereo not shown) [Compound 848] |
| < 0.1 | < 0.1 | CNc1cc(C)c2cc(OC)c(C#CCN3CCCC3)cc2n1 [Compound 859] |
| < 0.1 | < 0.1 | COc1cc2c(C3CCN([C@@H]4CCOC4)CC3)cc(C)nc2cc1OCCCN1CCCC1 [Compound 863] |
